Reference: patent US9518107B2, “Pharmaceutical compositions containing polypeptides derived from α-1 antitrypsin and methods of use thereof” (YISSUM RESEARCH DEVELOPMENT COMPANY OF THE HEBREW …, priority 2010, dated 2016)

Assays:
peritoneal macrophages = experiment: Oxidative burst of peritoneal macrophages (luminol luminescence, phorbol myristate acetate); assay type: cell-based, female C57BL/6 mice; conditions: 1 μg/ml UBE; FIG. 19
Experimental: Macrophages were harvested by peritoneal lavage of female C57BL/6 mice i.p. injected with thioglycolate. 0.2 ml cells (3×10^5/ml), luminol (200 μM), horseradish peroxidase (1.0 unit/ml) and UBE were suspended in Hank's balanced salt solution (HBSS) (final concentrations of the peptide in the reaction mixture are indicated in the figure). The reaction started by the addition of 1 μM phorbol myristate acetate. The reaction was performed in a 96-well plate. Luminescence was measured by Tecan spectrofluoro Plus.

Female C57B1/6 mice = experiment: LPS induced sepsis in mice, UBE i.v.; assay type: in vivo; conditions: i.v. within 1 hour after LPS 1.2 mg/mouse; 48 hours after LPS; 0.1 and 1.0 μg/kg; FIG. 20B
Experimental: Female C57B1/6 mice 7-8 weeks of age were injected i.p with LPS 1.2 mg/mouse. Thereafter (within 1 hour) UBE peptide as depicted by SEQ ID NO: 2 was injected i.v. (100 μl) at different doses; control group received PBS. Survival of mice was monitored. n=10 for control group, n=9 for each UBE-treated group.

arthritic mice = experiment: Collagen type II induced arthritis, joint swelling; assay type: in vivo; conditions: 1 μg/kg thrice a week, from five days after second immunization; FIG. 16
Experimental: Chick collagen type II (2.0 mg) was incubated overnight in 0.01 M acetic acid (0.9 ml) at 4° C. The resulting solution was emulsified with equal volume (1.0 ml) of […] Freund's Adjuvant containing 5.0 mg heat-killed Mycobacterium tuberculosis. Thereafter, the animal was injected intradermally in the tail base with 100 μl of the emulsion and an additional immunization was repeated 21 days later. Five days later, UBE or UBE1 polypeptide were administered (1 μg/kg thrice a week). The animals were evaluated for the difference in joint thickness (mm) between the indicated time intervals and prior to immunization.

female MRL/lpr mice = experiment: Spontaneous lupus-like syndrome in MRL/lpr mice (Systemic Lupus Erythematosus model); assay type: in vivo
Experimental: MRL/lpr mice develop a lupus-like syndrome spontaneously. UBE (SEQ ID NO:2) (1 μg/kg) was administered to female MRL/lpr mice thrice a week, starting at age of 12 weeks. Urine was obtained by spontaneous urination and the levels of protein (mg/dl) and erythrocytes (cells/dl) in the urine were evaluated throughout the treatment period (4 weeks) using commercial sticks.
In order to determine the levels of anti-dsDNA antibodies, blood was obtained by cardiac puncture of the MRL/lpr mice after 4 weeks of UBE treatment, and the serum levels of anti-dsDNA antibodies were evaluated using a commercial ELISA kit.
Serum levels of anti-dsDNA antibodies were determined by ELISA with the aid of a commercial kit (Euroimmun, Lubeck, Germany) following the manufacturer's instructions and detection antibodies were purchased for use with same (Bethyl Laboratories, Montgomery, Tex., USA).
Quantitative histopathology analysis of the kidneys was also performed. The kidneys of the mice after 4 weeks of UBE treatment were removed, fixed in formalin, sliced, and stained by H&E and by periodic acid […] stain. Representative histophathologies of the glomeruli and tubulointerstitial areas in control versus UBE treated mice is shown FIGS. 7C and 7D, versus 7E and 7F at 2× and 20×, respectively. The quantitative histopathology analysis is presented in FIG. 7A and FIG. 7B, respectively.
To evaluate the effect of UBE on lymphocyte function in MRL/lpr mice, peripheral lymph nodes and spleen cells were isolated from the control and UBE-treated mice and subjected to FACS analysis probing for CD4, CD8 and B220 marker expression (FIG. 8). Peripheral lymph node cells were positively selected for CD3 expression and the percent of CD3+ cells, which were negative for CD4− and CD8− expression was evaluated. Representative results from control and UBE treated animals are shown in FIGS. 8A and 8B, respectively. […] Spleen cells were similarly evaluated and representative results from control and UBE treated animals are shown in FIGS. 8C and 8D, respectively.
In parallel, peripheral lymph node cells were positively selected for B220+ expression. Representative results from control and UBE treated animals are shown in FIGS. 8G and 8H, respectively. […] Spleen cells were similarly evaluated and representative results from control and UBE treated animals are shown in FIGS. 8I and 8J, respectively.

HaCaT keratinocytes = experiment: HaCaT keratinocyte proliferation (MTT assay); assay type: cell-based; conditions: FIG. 18
Experimental: Cells (1.6×10^4/ml) were seeded (100 μl) in culture medium in 96 well plate. Twenty four hours later UBE was added at the indicated concentrations. Cell viability was determined by the MTT assay.

T-lymphocytes = experiment: Lymphocyte proliferation in vitro (viable cell count, trypan blue); assay type: cell-based, female C57B1/6 mice; conditions: 96 hours incubation; FIG. 17
Experimental: T-lymphocytes were harvested from lymph nodes of female C57B1/6 mice by standard methodology and seeded (1.3×10^6 cells/ml) in 96 well plate […]. Thereafter, UBE was added to the culture at the indicated concentrations and incubated for 96 hours (6% CO2, 37° C.). The medium containing the polypeptide was replaced after 48 hours of incubation. Viable cells (trypan blue staining) were counted a light microscope.

[1] = after 4 weeks of UBE treatment, 1 μg/kg, FIG. 7

Sequence: SMPPIVRFDHPFLFIIFEEHTQSPLFVGKVVDPTHK (listed as Mus musculus) [UBE, 36-mer peptide corresponding to residues 378-413 of Mus musculus alpha-1-antitrypsin (serpin a1c)]
- oxidative burst of peritoneal macrophages (luminescence) (peritoneal macrophages): suppressed
- reduction of LPS-induced mortality (Female C57B1/6 mice): 33%
- joint swelling (difference in joint thickness) (arthritic mice): reduction in joint swelling
- proteinuria (urinary protein) (female MRL/lpr mice; 1 μg/kg thrice a week from age of 12 weeks, 4 weeks, FIG. 4): significant reduction
- urinary microhematuria (female MRL/lpr mice; 1 μg/kg thrice a week from age of 12 weeks, 4 weeks, FIG. 5): significant reduction
- anti-dsDNA antibodies in the blood (serum, ELISA) (female MRL/lpr mice; after 4 weeks of UBE treatment, 1 μg/kg, FIG. 6): significant reduction
- pathological score of the glomeruli (kidney histopathology) (female MRL/lpr mice; [1]): significant reduction
- pathological score of the tubulointerstitial areas (kidney histopathology) (female MRL/lpr mice; [1]): significant reduction
- percent of B220+ cells, FACS (female MRL/lpr mice; peripheral lymph nodes): dramatically reduced
- double negative CD4−CD8− cells (expressed as percent CD3+), FACS (female MRL/lpr mice; peripheral lymph nodes, FIG. 8E): dramatically reduced
- percent of B220+ cells, FACS (female MRL/lpr mice; spleen cells): dramatically reduced
- double negative CD4−CD8− cells, FACS (female MRL/lpr mice; spleen cells, FIG. 8F): dramatically reduced
- effect on cultured keratinocyte proliferation (cell viability, MTT) (HaCaT keratinocytes): anti-proliferative effect
- concentration of maximal effect on T cell proliferation (T-lymphocytes): 1 ng/mL
